The values below come from US6436660B1, “Identification of novel antimicrobial agents using metabolic oxidation-reduction indicator dyes” (XOMA Technology Ltd., priority 1999, dated 2002).

The conditions of data set [1]: background statement on narrow therapeutic window; cited from earlier work.
A further data set has as its system bacterial growth. To be noted: background statement on narrow therapeutic window; cited from earlier work.
The test system of the next data set is Candida albicans. Kind of data set: Effect of antifungal compounds on fungal cells with Alamar Blue (fluorimetric metabolic oxidation-reduction indicator dye assay). It is filed as cell-based. To be noted: for characteristic "fingerprint" with metabolic oxidation-reduction indicator dye (statement on negative controls): for fungal cells, summary statement; for characteristic pattern or "fingerprint": increased metabolic oxidation-reduction activity (Alamar Blue fluorescence) relative to untreated control cells: Candida albicans 1x10^7 cells/mL, test compound two-fold dilutions from 64 μg/mL, 37° C., readings 0-60 min, best seen at 15 min (FIG. 2). The text has this:
Alamar Blue™ is an indicator dye formulated to measure quantitatively the proliferation of a variety of human or animal cells, bacteria, or fungi. It consists of an oxidation-reduction (REDOX) indicator that yields colorimetric and fluorimetric changes in response to metabolic activity (electron transport activity).
The relative effect of two BPI-derived peptides, XMP.391 (SEQ ID NO: 4) and XMP.445 (SEQ ID NO: 6), and the antifungal compound amphotericin B on fungal cells with the metabolic oxidation-reduction indicator dye Alamar Blue™ [AccuMed Int'l, Westlake, Ohio] was assessed as follows.
Candida albicans were grown in 75 mL Sabouraud's dextrose broth (SDB) for 5 hours at 30° C. Cells were pelleted by centrifiguation for 5 minutes in a Sorvall RT6000B centrifuge at 3,000 rpm (1500×g) and resuspended in 15 mL of fresh SDB. A 1:10 dilution of this suspension was used for an OD570 nm detennination. One OD unit is equivalent to 1×10^7 CFU/mL. Cells were adjusted to a concentration of 2×10^7 CFU/mL.
Test compounds XMP.391, XMP.445 and Amphotericin B (AMB) were two-fold serially diluted in SDB from a concentration of 128 μg/mL in a 96-well plate. This was done in triplicate with each well containing a volume of 100 μL. An equal volume of the yeast suspension was added to each well.
Alamar Blue™ was added at 20 μL per well and the initial (t=0) fluorescence readings were performed in a Molecular Devices SpectraMax Gemini plate reader. The excitation wavelength was 544 nm and the emission wavelength was measured at 590 nm. The plate was incubated at 37° C. and additional readings at 15, 30, 45 and 60 minutes were performed. Metabolic oxidation-reduction activity is detected by an increase in fluorescence emission.

Data set [2] has as its system E. coli (ATCC strain 8739). Kind of data set: Effect of antibacterial compounds on bacteria with Alamar Blue (colorimetric OD595 assay). It is filed as cell-based. The settings on record: for bacteria; summary statement. A general note: Resazurin is reduced to fluorescent resorufin, in cell work by metabolically active cells.
Experimental: E. coli (ATCC strain 8739) was incubated at 37° C. in 5 mL cation-adjusted Mueller Hinton Broth (CAMHB) for 3 hours to attain log phase growth. The bacteria were pelleted in a Sorvall RT6000B centrifuge for 5 minutes at 3,000 rpm (1.500×g ) and resuspended in 5 mL of fresh CAMHB. A 1:10 dilution was performed for an OD570 nm determination. One OD unit equals 1.25×10^9 CFU/mL. The bacterial suspension was adjusted to 1×10^8 CFU/mL.
This was done in triplicate with each well containing a volume of 100 μL. An equal volume of the bacterial suspension was added to each well. […] Alamar Blue™ was added at 20 μL per well. The “Blank” contained media and Alamar Blue™ only, without cells.
OD595 nm readings were performed in a Molecular Devices plate reader. This required that samples be centrifuged to pellet bacteria and related debris which would contribute to the OD595 nm reading. 150 μL were removed from the wells at various timepoints, centrifuged (2 minutes, 2,000 rpm) and 50 μL of supernatant was carefully transferred to a fresh 96-well plate for the reading. Timepoints were read at 0, 30, 60, 90 and 120 minutes. Metabolic oxidation-reduction activity is detected by an increase in OD in this colorimetric assay.

Turning to gentamicin, the “concentration that produces a toxic effect” value in data set [1] is 12000 ng/mL. For the same compound, the “concentration required to produce a therapeutic effect” value with bacterial growth is 8 µg/mL.
For the compound `OC(Cn1cncn1)(Cn1cncn1)c1ccc(F)cc1F` [fluconazole], the “characteristic "fingerprint" with metabolic oxidation-reduction indicator dye (statement on negative controls)” value with Candida albicans is “do not exhibit the characteristic “fingerprint,””.
In the case of `C[C@@H]1[C@H](O)[C@@H](C)/C=C/C=C/C=C/C=C/C=C/C=C/C=C/[C@H](O[C@@H]2O[C@H](C)[C@@H](O)[C@H](N)[C@@H]2O)C[C@@H]2O[C@](O)(C[C@@H](O)C[C@@H](O)[C@H](O)CC[C@@H](O)C[C@@H](O)CC(=O)O[C@H]1C)C[C@H](O)[C@H]2C(=O)O` [amphotericin B], in the data set on Candida albicans, the “characteristic pattern or "fingerprint": increased metabolic oxidation-reduction activity (Alamar Blue fluorescence) relative to untreated control cells” value is “did not show the “fingerprint.”” and the “characteristic "fingerprint" with metabolic oxidation-reduction indicator dye (statement on negative controls)” value is given as “do not exhibit the characteristic “fingerprint,””.
Consider antimycin, for which the “characteristic "fingerprint" with metabolic oxidation-reduction indicator dye (statement on negative controls)” value in the data set with Candida albicans was “do not exhibit the characteristic “fingerprint,””.
As to polymyxin, the “characteristic "fingerprint" with metabolic oxidation-reduction indicator dye (statement on negative controls)” value in data set [2] is on record as “do not exhibit the characteristic “fingerprint,””.
With “XMP.391: BPI-derived peptide, domain III-derived, SEQ ID NO: 4; structure described in Table 1 of U.S. Pat. No. 5,858,974 (KVGWLIQLFHKK)”, the “characteristic pattern or "fingerprint": increased metabolic oxidation-reduction activity (Alamar Blue fluorescence) relative to untreated control cells” value with Candida albicans is “known to produce this characteristic pattern”.
